This note sets out measurements from article PMC2829070 (PLoS Pathogens, 2010).

Experiment [1] relates to HN30408cl7 (H5N1). Type of experiment: in vivo, BALB/c mice. Particulars: 21 days.
The subject of experiment [2] is Ind3006 (H5N1). Type of experiment: in vivo, BALB/c mice. Particulars: 21 days.
For experiment [3], the system named is HN30408cl7 (H5N1). Also on record: species or system BALB/c mice; Virus titers in Lungs, Day 6 / Virus titers in Lungs, Day 9 / Virus titers in Brain, Day 9: unit not given here. Particulars: mouse, in vivo.
For experiment [4], the system named is Ind3006 (H5N1). Also on record: species or system BALB/c mice; Virus titers in Lungs, Day 6 / Virus titers in Brain, Day 6: unit not given here. Particulars: mouse, in vivo.
In experiment [5] the test system is HN30408cl7 (H5N1). Also on record: species or system BALB/c mice. The note with it: mouse, in vivo.
Experiment [6] relates to HN30408cl7 (H5N1). Also on record: species or system BALB/c mice; Virus titer in Lungs, Day 3 / Virus titer in Lungs, Day 6: unit not given here. The note with it: mouse, in vivo.
Experiment [7] concerns the target NA of Ind3006 (A/Indonesia/UT3006/05, H5N1) (Influenza A virus, UniProt I6YWY9). Kind of experiment: biochemical.
Experiment [8] has as its system NA of A/New Caledonia/20/99 (H1N1). It is filed as binding, influenza A virus (H1N1).
The subject of experiment [9] is NA of A/Panama/2007/99 (H3N2). It is filed as binding, influenza A virus (H3N2).
Experiment [10] concerns NA of B/Mie/1/93. It is filed as binding, influenza B virus.

pIC50: −log10 of the molar value. Several values for one entry are separate records, joined by “and”; a condition that tells them apart may be missing. Equal values may be shown once. Where only a bound is given, the exact number is not on record here.

Regarding `[H]/N=C(\N)N[C@H]1C=C(C(=O)O)O[C@@H]([C@H](OC)[C@H](O)COC(=O)CCCCCCC)[C@@H]1NC(C)=O` [CS-8958], the “mice protected from lethal infection” value in experiment [1] is 90%. The “mice protected from lethal infection” value in [2] turned out to be 70%. In experiment [3], the “Virus titers in Brain, Day 3” value is below 1.6; the “Virus titers in Brain, Day 6” value is 2.0±0.3 and <1.6. Moreover, in [4], the “Virus titers in Brain, Day 3” value is listed as below 1.6; the “Virus titers in Brain, Day 6” value is on record as below 1.6; the “Virus titers in Brain, Day 9” value is reported as below 1.6; the “Virus titers in Lungs, Day 6” value is 7.2±0.1 and 4.5±1.4. Besides, the “Virus titers in Lungs, Day 9” value in experiment [4] is below 1.7. Further, in experiment [5], the “prophylactic efficacy (survival)” value is given as “limited” and the “protection from the lethal infection (prophylaxis)” value is given as “significantly protected”. In addition, in experiment [6], the “Virus titer in Brain, Day 3” value is recorded as below 1.6.
In general, pIC50 refers to the IC50 on a negative log10 scale, so that one unit is a factor of ten. Molecule `CCC(CC)O[C@@H]1C=C(C(=O)O)C[C@H](N)[C@H]1NC(C)=O` [Oseltamivir carboxylate] showed a pIC50 in experiment [7] of 8.00. In addition, the entries for the “Slope of the dissociation curve” value in [8], in experiment [9] and in experiment [10] were 173.34, 6.97 and 381.21, respectively. Besides, in experiment [10], the “recovery of NA activity” value was “almost fully recovered”.
As for `CCOC(=O)C1=C[C@@H](OC(CC)CC)[C@H](NC(C)=O)[C@@H](N)C1` [Oseltamivir phosphate], in experiment [1], the “mice protected from lethal infection” value is “less than half” and the “mice saved from lethal infection” value is 90%. Moreover, in experiment [2], the “mice protected from lethal infection” value is given as “less than half” and the “mice saved from lethal infection” value worked out at 50%. Besides, in experiment [3], the “Virus titers in Brain, Day 3” value is below 1.6; the “Virus titers in Brain, Day 9” value is 4.8 and 4.7±0.4 and 3.7 and 5.1; the “Virus titers in Lungs, Day 3” value was 6.0±0.1 and 5.0±0.6 and 6.2±0.2; the “Virus titers in Lungs, Day 6” value is 5.2±0.1 and 5.5±0.4 and 3.8±0.5 and 6.4±0.6. For the same molecule, in [3], the “Virus titers in Lungs, Day 9” value is 4.9±1.8 and 4.7±0.6 and 4.7±1.4 and 6.1. Moreover, in experiment [4], the “Virus titers in Brain, Day 3” value is reported as below 1.6; the “Virus titers in Brain, Day 6” value is 3.1±0.3 and 2.6±0.1 and 3.2±1.2 and 3.3±0.9; the “Virus titers in Brain, Day 9” value is on record as below 1.6; the “Virus titers in Lungs, Day 3” value was 7.5±0.1 and 7.2±0.1 and 7.1±0.2. Moreover, in [4], the “Virus titers in Lungs, Day 6” value was 7.5±0.2 and 7.4±0.2 and 7.4±0.1 and 7.2±0.1; the “Virus titers in Lungs, Day 9” value was below 1.7. Further, the “prophylactic efficacy (survival)” value in [5] was “limited”. Moreover, in [6], the “Virus titer in Brain, Day 3” value was below 1.6; the “Virus titer in Brain, Day 6” value was 2.6 and <1.6; the “Virus titer in Lungs, Day 3” value was 5.5±0.7 and 4.3±1.9 and 3.2±2.9 and 5.8±0.8; the “Virus titer in Lungs, Day 6” value is 5.6±0.4 and 6.1±0.2 and 6.0±0.0 and 6.0±0.4.
For the molecule `CC(=O)N[C@H]1[C@H]([C@H](O)[C@H](O)CO)OC(C(=O)O)=C[C@@H]1N=C(N)N` [Zanamivir], the negative logarithm of the IC50 (pIC50) in [7] was 10.15. Also, the results for the “Slope of the dissociation curve” value in experiment [8], in experiment [9] and in [10] were 140.10, 2.10 and 184.10, respectively.
For Peramivir, the Slope difference is listed as -456.52 in experiment [8], -48.81 in [9] and -773.42 in experiment [10]. For the same molecule, the “Slope of the dissociation curve” value came to 43.10 in [8], 0.19 in experiment [9] and 180.66 in experiment [10].
